Experiments:
[1] = target: T1, Aurora1 (Aurora-B) (Homo sapiens, UniProt Q96GD4); experiment: Aurora 1 (Aurora B) kinase radioactivity scintillation assay using nickel chelate Flash plates; format: biochemical; conditions: 10 nM Aurora-B (co expressed with C3 fragment of INCEP), 500 nM NuMA substrate, 1 μM ATP with [33P] ATP, 5 mM MgCl2, 30 minutes, 37° C.
T1 construct: Aurora-B: the full length protein (His tagged in N-terminal) has been co expressed in SF9 cells; poly-histidine (N); made in house; host or cells: SF9 cells
Description: (§1) Aurora 1 and 2 (Respectively. Aurora B and A)
(§2) The inhibitory effect of compounds with respect to the Aurora 1 and 2 kinases is determined with a radioactivity scintillation assay using nickel chelate.
(§3) The kinase activity of Aurora is measured by the phosphorylation of NuMA-histidine substrate in the presence of radiolabelled ATP ([^33P] ATP) using 96 well Flash plates where the nickel-chelate is linked to the surface of the microplate. The amount of ^33P incorporated to the substrate NuMA is proportional to the aurora activity.
(§4) The Flash plates used are nickel-chelate 96 well plates (Perkin Elmer, model SMP107).
(§5) The products to be evaluated are incubated in a 100 μl reaction volume per well in the presence of 10 nM of Aurora-B or Aurora-A, 500 nM of NuMA substrate in the following buffer: 50 mM of NaCl, 5 mM MgCl2, (Aurora-B) or 10 mM MgCl2 (Aurora-A) and 1 mM of DTT at 37° C.
(§6) 80 μL of enzyme/substrate incubation buffer is distributed in each well, followed by 10 μL of solution of compound to be measured with various concentrations. The reaction is started by adding 1 μM of ATP (final concentration) containing 0.2 μCi of [^33P] ATP (10 μL). After 30 minutes of incubation the reaction is stopped by removal of the reaction mixture and each well is washed twice with 300 μl of buffer Tris/HCl. The radioactivity is measured in each well using a Packard Top count scintillation counter instrument.
(§7) The enzymatic activity is expressed as counts per minute obtained in 30 minutes after subtraction of the background noise (reaction medium without enzyme). The measurement is expressed as percentage of inhibition of Aurora activity versus the control. To generate IC50 values, compounds of the invention are tested at different concentration and the percentage of inhibition are plotted as function of compound concentration, IC50s are calculated using the Xlfit 4 curve fitting software.

[2] = target: T2, Aurora2 (Aurora-A) (Homo sapiens, UniProt O14965); experiment: Aurora 2 (Aurora A) kinase radioactivity scintillation assay using nickel chelate Flash plates; format: biochemical; conditions: 10 nM Aurora-A, 500 nM NuMA substrate, 1 μM ATP with [33P] ATP, 10 mM MgCl2, 30 minutes, 37° C.
T2 construct: Aurora-A: the full length recombinant protein including an N-terminal poly-histidine tail has been expressed in E. coli; poly-histidine (N); made in house; host or cells: E. coli
T2 sequence (O14965 1-403): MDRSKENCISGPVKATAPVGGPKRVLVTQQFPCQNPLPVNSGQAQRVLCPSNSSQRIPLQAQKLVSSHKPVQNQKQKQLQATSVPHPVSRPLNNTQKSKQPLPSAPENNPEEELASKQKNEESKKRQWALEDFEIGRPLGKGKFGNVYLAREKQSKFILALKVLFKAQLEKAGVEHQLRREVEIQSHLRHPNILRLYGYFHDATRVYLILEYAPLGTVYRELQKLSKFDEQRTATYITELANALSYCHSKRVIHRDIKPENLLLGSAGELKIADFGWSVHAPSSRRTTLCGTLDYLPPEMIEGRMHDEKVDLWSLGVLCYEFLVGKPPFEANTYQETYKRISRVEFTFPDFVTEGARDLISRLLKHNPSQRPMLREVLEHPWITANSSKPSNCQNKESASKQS
Description: as §1, §2, §3, §4, §5, §6, §7

T1 sequence (Q96GD4 whole entry, species assumed, the tested form may be a part): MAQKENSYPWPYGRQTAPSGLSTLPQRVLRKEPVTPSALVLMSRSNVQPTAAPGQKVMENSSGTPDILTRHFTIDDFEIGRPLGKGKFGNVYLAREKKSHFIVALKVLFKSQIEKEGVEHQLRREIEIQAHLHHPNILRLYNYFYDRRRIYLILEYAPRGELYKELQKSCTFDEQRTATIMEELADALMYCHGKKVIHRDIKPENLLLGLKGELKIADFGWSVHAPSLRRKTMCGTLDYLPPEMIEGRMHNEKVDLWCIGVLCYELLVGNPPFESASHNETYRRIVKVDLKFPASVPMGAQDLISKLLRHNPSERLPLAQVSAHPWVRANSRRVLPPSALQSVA
T1 sequence (Q9NQS7 821-918 partner limits assumed, species assumed): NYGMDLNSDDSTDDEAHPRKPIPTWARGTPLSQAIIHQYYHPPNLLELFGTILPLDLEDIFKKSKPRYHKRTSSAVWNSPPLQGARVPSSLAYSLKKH

Row | SMILES | IC50 [1] [nM] | IC50 [2] [nM]
1 | O=C1CCCC2=C1[C@H](c1ccc(Sc3nc4ccccc4[nH]3)o1)c1c[nH]nc1N2 (single isomer, unassigned) [120a (+), 4-[5-(1H-Benzimidazol-2-ylsulfanyl)-furan-2-yl]-1,4,6,7,8,9-hexahydro-pyrazolo[3,4-b]quinolin-5-one] | 4 | 
2 | O=C1CCCC2=C1C(c1ccc(Sc3nc4ccccc4[nH]3)o1)c1cn[nH]c1N2 (stereo not drawn) [Example 3, 4-[5-(1H-Benzimidazol-2-ylsulfanyl)-furan-2-yl]-1,4,6,7,8,9-hexahydro-pyrazolo[3,4-b]quinolin-5-one] | 8 | 
3 | O=C1CNCC2=C1C(c1ccc(Sc3nc4ccccc4[nH]3)o1)c1c[nH]nc1N2 (stereo not drawn) [Example 20, 4-[5-(1H-Benzimidazol-2-ylsulfanyl)-furan-2-yl]-2,4,6,7,8,9-hexahydro-pyrazolo[3,4-b]-1,7-naphthyridin-5-one; compound with trifluoro-acetic acid] | 83 | 
4 | O=C1CC(c2ccccc2)CC2=C1C(c1ccc(Sc3nc4ccccc4[nH]3)o1)c1c[nH]nc1N2 (stereo not drawn) [Example 29, 4-[5-(1H-Benzimidazol-2-ylsulfanyl)-furan-2-yl]-7-phenyl-2,4,6,7,8,9-hexahydro-pyrazolo[3,4-b]quinolin-5-one; compound with trifluoro-acetic acid] | 36 | 100
5 | CC1(C)CCC2=C(C1=O)C(c1ccc(Sc3nc4ccccc4[nH]3)o1)c1c[nH]nc1N2 (stereo not drawn) [Example 30, 4-[5-(1H-Benzimidazol-2-ylsulfanyl)-furan-2-yl]-6,6-dimethyl-2,4,6,7,8,9-hexahydro-pyrazolo[3,4-b]quinolin-5-one; compound with trifluoro-acetic acid] | 5 | 20
6 | O=C1CC(c2ccc(Cl)cc2Cl)CC2=C1C(c1ccc(Sc3nc4ccccc4[nH]3)o1)c1c[nH]nc1N2 (stereo not drawn) [Example 33, 4-[5-(1H-Benzimidazol-2-ylsulfanyl)-furan-2-yl]-7-(2,4-dichloro-phenyl)-2,4,6,7,8,9-hexahydro-pyrazolo[3,4-b]quinolin-5-one; compound with trifluoro-acetic acid] | 32 | 179
7 | O=C1CC(c2ccco2)CC2=C1C(c1ccc(Sc3nc4ccccc4[nH]3)o1)c1c[nH]nc1N2 (stereo not drawn) [Example 34, 4-[5-(1H-Benzimidazol-2-ylsulfanyl)-furan-2-yl]-7-furan-2-yl-2,4,6,7,8,9-hexahydro-pyrazolo[3,4-b]quinolin-5-one; compound with trifluoro-acetic acid] | 5 | 23
8 | O=C1CCCC2=C1C(c1ccc(Sc3ccccn3)o1)c1c[nH]nc1N2 (stereo not drawn) [Example 40] | 3400 | 
9 | CCOC(=O)c1[nH]cc2c1NC1=C(C(=O)CC(C)(C)C1)C2c1ccc(Sc2nc3ccccc3[nH]2)o1 (stereo not drawn) [Example 106, 9-[5-(1H-Benzimidazol-2-ylsulfanyl)-furan-2-yl]-6,6-dimethyl-8-oxo-4,5,6,7,8,9-hexahydro-2H-pyrrolo[3,4-b]quinoline-3-carboxylic acid ethyl ester] | 31 | 
10 | CCOC(=O)c1[nH]cc2c1NC1=C(C(=O)CCC1)C2c1ccc(Sc2nc3ccc(F)c(F)c3[nH]2)o1 (stereo not drawn) [Example 121, 9-[5-(6,7-Difluoro-1H-benzimidazol-2-ylsulfanyl)-furan-2-yl]-8-oxo-4,5,6,7,8,9-hexahydro-2H-pyrrolo[3,4-b]quinoline-3-carboxylic acid ethyl ester] | 7 | 
11 | CCOC(=O)c1[nH]cc2c1NC1=C(C(=O)CCC1)C2c1ccc(Sc2nc3cc(Cl)ccc3[nH]2)o1 (stereo not drawn) [Example 129, 9-[5-(5-Chloro-1H-benzimidazol-2-ylsulfanyl)-furan-2-yl]-8-oxo-4,5,6,7,8,9-hexahydro-2H-pyrrolo[3,4-b]quinoline-3-carboxylic acid ethyl ester] | 10 | 
12 | CCOC(=O)c1[nH]cc2c1NC1=C(C(=O)CCC1)C2c1ccc(Sc2nc3c(F)cc(F)cc3[nH]2)o1 (stereo not drawn) [Example 142, 9-[5-(4,6-Difluoro-1H-benzimidazol-2-ylsulfanyl)-furan-2-yl]-8-oxo-4,5,6,7,8,9-hexahydro-2H-pyrrolo[3,4-b]quinoline-3-carboxylic acid ethyl ester] | 3 | 
13 | CCOC(=O)c1[nH]cc2c1NC1=C(C(=O)CCC1)C2c1ccc(Sc2nc3cc(F)ccc3[nH]2)o1 (stereo not drawn) [Example 148, 9-[5-(5-Fluoro-1H-benzimidazol-2-ylsulfanyl)-furan-2-yl]-8-oxo-4,5,6,7,8,9-hexahydro-2H-pyrrolo[3,4-b]quinoline-3-carboxylic acid ethyl ester] | 11 | 

Second part, the compound after the results:

Row | IC50 [1] [nM] | IC50 [2] [nM] | SMILES
14 | 75 |  | O=C1CCCC2=C1[C@H](c1ccc(Sc3nc4ccccc4[nH]3)o1)c1c[nH]nc1N2 (single isomer, unassigned) [120b (−), 4-[5-(1H-Benzimidazol-2-ylsulfanyl)-furan-2-yl]-1,4,6,7,8,9-hexahydro-pyrazolo[3,4-b]quinolin-5-one]
15 | 4 | 15 | CC1(C)CC(=O)C2=C(C1)Nc1n[nH]cc1C2c1ccc(Sc2nc3ccccc3[nH]2)o1 (stereo not drawn) [Example 4, 4-[5-(1H-Benzimidazol-2-ylsulfanyl)-furan-2-yl]-7,7-dimethyl-2,4,6,7,8,9-hexahydro-pyrazolo[3,4-b]quinolin-5-one]
16 | 5 | 17 | CC1CC(=O)C2=C(C1)Nc1n[nH]cc1C2c1ccc(Sc2nc3ccccc3[nH]2)o1 (stereo not drawn) [Example 28, 4-[5-(1H-Benzimidazol-2-ylsulfanyl)-furan-2-yl]-7-methyl-2,4,6,7,8,9-hexahydro-pyrazolo[3,4-b]quinolin-5-one; compound with trifluoro-acetic acid]
17 | 4 | 14 | CC(C)C1CC(=O)C2=C(C1)Nc1n[nH]cc1C2c1ccc(Sc2nc3ccccc3[nH]2)o1 (stereo not drawn) [Example 31, 4-[5-(1H-Benzimidazol-2-ylsulfanyl)-furan-2-yl]-7-isopropyl-2,4,6,7,8,9-hexahydro-pyrazolo[3,4-b]quinolin-5-one; compound with trifluoro-acetic acid]
18 | 50 | 125 | COc1ccc(C2CC(=O)C3=C(C2)Nc2n[nH]cc2C3c2ccc(Sc3nc4ccccc4[nH]3)o2)cc1 (stereo not drawn) [Example 32, 4-[5-(1H-Benzimidazol-2-ylsulfanyl)-furan-2-yl]-7-(4-methoxy-phenyl)-2,4,6,7,8,9-hexahydro-pyrazolo[3,4-b]quinolin-5-one; compound with trifluoro-acetic acid]
19 | 5020 |  | Cn1c(Sc2ccc(C3C4=C(CNCC4=O)Nc4n[nH]cc43)o2)nc2ccccc21 (stereo not drawn) [Example 83, 4-[5-(1-Methyl-1H-benzimidazol-2-ylsulfanyl)-furan-2-yl]-2,4,6,7,8,9-hexahydro-pyrazolo[3,4-b]-1,7-naphthyridin-5-one; compound with trifluoro-acetic acid]
20 | 7 |  | CCOC(=O)c1[nH]cc2c1NC1=C(C(=O)CNC1)C2c1ccc(Sc2nc3ccccc3[nH]2)o1 (stereo not drawn) [Example 104, 9-[5-(1H-Benzimidazol-2-ylsulfanyl)-furan-2-yl]-8-oxo-4,5,6,7,8,9-hexahydro-2H-pyrrolo[3,4-b]-1,7-naphthyridine-3-carboxylic acid ethyl ester; compound with trifluoro-acetic acid]
21 | 6 |  | CCOC(=O)c1[nH]cc2c1NC1=C(C(=O)CCC1)C2c1ccc(Sc2nc3cc(F)c(F)cc3[nH]2)o1 (stereo not drawn) [Example 114, 9-[5-(5,6-Difluoro-1H-benzimidazol-2-ylsulfanyl)-furan-2-yl]-8-oxo-4,5,6,7,8,9-hexahydro-2H-pyrrolo[3,4-b]quinoline-3-carboxylic acid ethyl ester]
22 | 7 |  | CCOC(=O)c1[nH]cc2c1NC1=C(C(=O)CCC1)C2c1ccc(Sc2nc3c(F)c(F)c(F)cc3[nH]2)o1 (stereo not drawn) [Example 122, 8-Oxo-9-[5-(4,5,6-trifluoro-1H-benzimidazol-2-ylsulfanyl)-furan-2-yl]-4,5,6,7,8,9-hexahydro-2H-pyrrolo[3,4-b]quinoline-3-carboxylic acid ethyl ester]

— US8163768B2, “1,4-dihydropyridine-fused heterocycles, process for preparing the same, use and compositions containing them” (Aventis Pharma S.A.., priority 2005, dated 2012)
